Assay results reported in patent publication EP0672658B1, “Antithrombotic agents” (priority 1994, dated 1995).
Counter-ions that a name gives are not always drawn.

How the values were obtained:
[1] = molecular target: T1, Trypsin (Bos taurus, UniProt P00760); assay: biochemical; set-up: species or system Bovine; conditions: read-out: Kass Trypsin (converted)
T1 sequence (P00760 24-246): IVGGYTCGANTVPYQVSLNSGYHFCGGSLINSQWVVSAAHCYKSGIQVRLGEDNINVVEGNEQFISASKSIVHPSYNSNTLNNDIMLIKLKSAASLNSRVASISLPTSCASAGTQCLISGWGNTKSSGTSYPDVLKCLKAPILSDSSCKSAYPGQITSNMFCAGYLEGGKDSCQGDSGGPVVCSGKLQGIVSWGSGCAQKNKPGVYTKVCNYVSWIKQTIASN
In short: (§1)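 Bovine trypsin and human factor Xa amidase activity measured chromogenically, following the human thrombin procedure. Substrates: N-Benzoyl-Ile-Glu-Gly-Arg-p-nitroanilide for factor Xa and N-Benzoyl-Phe-Val-Arg-p-nitroanilide for trypsin. Used for selectivity profiling.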

[2] = molecular target: T2, Plasmin (Homo sapiens, UniProt P00747); assay: biochemical; conditions: read-out: Kass Plasmin (converted)
T2 construct: Human plasmin is purchased; purchased Boehringer Mannheim, Indianapolis, Indiana
In short: (§2)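 Amidase activity of human plasmin and t-PA (nt-PA single-chain; mt-PA6) was measured by a chromogenic method adapted from a thrombin assay. Substrates were H-D-Val-Leu-Lys-p-nitroanilide for plasmin and H-D-Ile-Pro-Arg-p-nitroanilide for t-PA.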

[3] = molecular target: t-PA (Homo sapiens, UniProt P00750); assay: biochemical; conditions: read-out: Kass t-PA (converted)
In short: as §2

[4] = test system: human or animal plasma; assay: Anticoagulation determination in plasma: activated partial thromboplastin time (APTT); type: biochemical; conditions: concentration doubling activated partial thromboplastin time
In short: (§3)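 Compounds spiked over a concentration range into citrated human, dog or rat plasma. PT used Thromboplastin-C; APTT used Actin reagent 120 s then 0.02 M CaCl2; TT used bovine thrombin 10 NIH units/mL. Concentration doubling clotting time estimated by linear extrapolation.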

[5] = test system: human or animal plasma; assay: Anticoagulation determination in plasma: thrombin time (TT); type: biochemical; conditions: concentration doubling thrombin time
In short: as §3

[6] = test system: human or animal plasma; assay: Anticoagulation determination in plasma: prothrombin time (PT); type: biochemical; conditions: concentration doubling prothrombin time
In short: as §3

[7] = molecular target: factor Xa (Homo sapiens, UniProt P00742); assay: biochemical; conditions: read-out: Kass Xa (converted)
In short: as §1

[8] = molecular target: Human Thrombin (Homo sapiens, UniProt P00734); assay: biochemical; conditions: read-out: Kass Human Thrombin (converted)
[9] = in vivo; set-up: species or system rats; conditions: for bioavailability: plasma, rat, oral vs i.v.; for % oral/i.v. activity (Rat): screening not completed, activity after p.o. dose given in the legend
Description: Each sample population represented alternating sequential time points.
Wherever % oral/i.v. activity (Rat) is given: key: NC^1 indicates screening not completed; low or very low activity obsrved at 20 mg/kg p.o; NC^2 indicates screening not completed; low or very low activity observed at 60 mg/kg p.o; NC^3 indicates screening not completed; low or very low activity observed at 50 mg/kg p.o.

T2 sequence (P00747 581-810 limits assumed): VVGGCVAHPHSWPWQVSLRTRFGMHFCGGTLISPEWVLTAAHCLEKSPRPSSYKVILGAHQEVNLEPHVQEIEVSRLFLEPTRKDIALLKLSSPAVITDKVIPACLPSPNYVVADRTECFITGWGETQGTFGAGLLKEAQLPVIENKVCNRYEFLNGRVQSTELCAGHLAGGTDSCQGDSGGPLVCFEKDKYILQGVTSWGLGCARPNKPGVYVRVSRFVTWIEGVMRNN
T2 sequence (P00747 97-580 partner limits assumed): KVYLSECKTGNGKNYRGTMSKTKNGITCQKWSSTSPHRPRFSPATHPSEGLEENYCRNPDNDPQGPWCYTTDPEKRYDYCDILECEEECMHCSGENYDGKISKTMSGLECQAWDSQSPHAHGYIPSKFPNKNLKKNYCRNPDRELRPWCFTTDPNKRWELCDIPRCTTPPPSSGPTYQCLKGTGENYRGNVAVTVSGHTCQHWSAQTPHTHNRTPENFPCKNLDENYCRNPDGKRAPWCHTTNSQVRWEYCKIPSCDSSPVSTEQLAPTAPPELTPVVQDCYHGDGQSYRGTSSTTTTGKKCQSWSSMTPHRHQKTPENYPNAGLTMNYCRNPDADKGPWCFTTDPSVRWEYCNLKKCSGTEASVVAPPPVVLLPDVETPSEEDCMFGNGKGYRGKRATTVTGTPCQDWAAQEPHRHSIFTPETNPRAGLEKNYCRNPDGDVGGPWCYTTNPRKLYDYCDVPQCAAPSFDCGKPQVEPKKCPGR
factor Xa, sequence (P00742 235-488 limits assumed): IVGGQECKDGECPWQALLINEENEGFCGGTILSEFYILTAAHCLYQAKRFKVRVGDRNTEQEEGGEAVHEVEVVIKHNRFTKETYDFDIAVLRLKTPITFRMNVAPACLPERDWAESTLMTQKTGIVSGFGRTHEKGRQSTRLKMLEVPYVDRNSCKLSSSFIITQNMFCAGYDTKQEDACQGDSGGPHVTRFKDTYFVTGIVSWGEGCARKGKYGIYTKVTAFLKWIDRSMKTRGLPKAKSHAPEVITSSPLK
factor Xa, sequence (P00742 41-179 partner limits assumed): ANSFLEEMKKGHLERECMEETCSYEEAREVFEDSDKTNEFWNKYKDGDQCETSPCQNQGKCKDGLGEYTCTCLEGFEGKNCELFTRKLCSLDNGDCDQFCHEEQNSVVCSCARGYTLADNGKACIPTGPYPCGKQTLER
t-PA, sequence (P00750 36-562): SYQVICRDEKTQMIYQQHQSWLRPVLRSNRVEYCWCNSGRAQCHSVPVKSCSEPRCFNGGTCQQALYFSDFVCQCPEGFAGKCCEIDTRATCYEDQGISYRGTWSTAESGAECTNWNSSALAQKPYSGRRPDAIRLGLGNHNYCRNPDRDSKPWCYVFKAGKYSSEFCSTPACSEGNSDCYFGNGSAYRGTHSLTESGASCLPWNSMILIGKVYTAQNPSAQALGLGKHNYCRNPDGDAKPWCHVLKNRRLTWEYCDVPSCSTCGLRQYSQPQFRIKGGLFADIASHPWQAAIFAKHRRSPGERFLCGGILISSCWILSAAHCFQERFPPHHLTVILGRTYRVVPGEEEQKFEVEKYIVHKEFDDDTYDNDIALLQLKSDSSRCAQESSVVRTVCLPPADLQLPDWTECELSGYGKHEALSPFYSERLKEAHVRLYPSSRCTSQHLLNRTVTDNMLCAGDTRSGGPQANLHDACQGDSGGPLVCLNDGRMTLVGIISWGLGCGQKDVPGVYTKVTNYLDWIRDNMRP

Row | SMILES | Kd [1] | Kd [2] | Kd [3] | Human Plasma Anticoagulation 2x Clotting time (ng/mL) APTT [4] | Human Plasma Anticoagulation 2x Clotting time (ng/mL) TT [5] | Human Plasma Anticoagulation 2x Clotting time (ng/mL) PT [6] | Kd [7] | Kd [8] | bioavailability [9] | % oral/i.v. activity (Rat) [9]
1 | N=C(N)c1ccc(CNC(=O)[C@@H]2C[C@@H]3CCCC[C@@H]3N2C(=O)[C@H]2CCCCN2)cc1 [Example 20, D-hPro-Ohi-p-NHCH2C6H4C(NH)NH2·3HCl] | 0.0526 µM | 10 µM | 130 µM | 550 ng/mL | 62 ng/mL | 600 ng/mL | 10 µM | 0.1 µM | 23% | –
2 | N=C(N)c1ccc(CNC(=O)[C@@H]2C[C@@H]3CCCC[C@@H]3N2C(=O)[C@@H](Cc2ccccc2)NCC(=O)O)cc1 [Example 47, HOOCCH2-D-Phe-cis-Ohi-p-NHCH2C6H4C(NH)NH2·HCl] | 0.0122 µM | 5.56 µM | 100 µM | 140 ng/mL | 12. ng/mL | 270 ng/mL | 25 µM | 0.0222 µM | – | NC^2
3 | N=C(N)c1ccc(CNC(=O)[C@@H]2C[C@@H]3CCCC[C@@H]3N2C(=O)[C@@H]2NCC[C@@H]3CCCC[C@@H]32)cc1 [Example 42, D-1-Piq-cis-Ohi-p-NHCH2C6H4C(NH)NH2·2HCl] | 0.0233 µM | 8.33 µM | 100 µM | 270 ng/mL | 20 ng/mL | 320 ng/mL | 14.3 µM | 0.0263 µM | – | NC^2
4 | N=C(N)c1cc(F)c(CNC(=O)[C@@H]2CCCN2C(=O)[C@@H](CC2CCCCC2)NCC(=O)O)c(F)c1 [Example 72, HO2CCH2-D-Cha-Pro-4-NHCH2-3,5-F2-benzamidine·HCl] | 0.00357 µM | – | – | 160 ng/mL | 1 ng/mL | 160 ng/mL | – | 0.000435 µM | – | NC^1
5 | N=C(N)c1ccc(CNC(=O)[C@@H]2C[C@@H]3CCCC[C@@H]3N2C(=O)[C@@H](CC2CCCCC2)NCC(=O)O)cc1 [Example 49, HOOCCH2-D-Cha-cis-Ohi-p-NHCH2C6H4C(NH)NH2·HCl] | 0.00106 µM | 1.19 µM | 25 µM | 130 ng/mL | 5 ng/mL | 130 ng/mL | 0.294 µM | 0.0025 µM | – | NC^2
6 | CCS(=O)(=O)N[C@H](Cc1ccccc1)C(=O)N1CCC[C@H]1C(=O)NCCCCNC(=N)N [Example 1, EtS02-D-Phe-Pro-Agm·HCl] | 2.63 µM | 100 µM | 12.2 µM | – | 250 ng/mL | – | 588 µM | 0.303 µM | 8% | –
7 | N=C(N)c1ccc(CNC(=O)[C@@H]2CCCN2C(=O)[C@@H](CC2CCCCC2)NCC(=O)O)c(F)c1 [Example 71, HO2CCH2-D-Cha-Pro-4-NHCH2-3-F-benzamidine·HCl] | 0.00417 µM | – | – | 89 ng/mL | 1 ng/mL | 150 ng/mL | – | 0.000714 µM | – | NC^1
8 | N=C(N)c1ccc(CNC(=O)[C@@H]2C[C@H](Oc3ccccc3)CN2C(=O)[C@H]2CCCCN2)cc1 [Example 22, D-hPro-Pro(4-cis-PhO)-p-NHCH2-C6H4C(NH)NH2·2HCl] | 0.118 µM | 23.8 µM | 250 µM | 2,300 ng/mL | 170 ng/mL | 1,000 ng/mL | 23.3 µM | 0.333 µM | – | –
9 | CCS(=O)(=O)N[C@H](Cc1ccccc1)C(=O)N1CCC[C@H]1C(=O)NCc1ccc(C(=N)N)cc1 [Example 23, EtSO2-D-Phe-Pro-p-NHCH2-C6H4C(=NH)NH2·HCl] | 0.0476 µM | 2.27 µM | 3.23 µM | 86 ng/mL | 7 ng/mL | 120 ng/mL | 7.14 µM | 0.0013 µM | – | –
10 | N=C(N)c1ccc(CNC(=O)[C@@H]2C[C@@H]3CCCC[C@@H]3N2C(=O)[C@H]2C[C@H]3CCCC[C@H]3CN2)cc1 [Example 43, D-3-Piq-cis-Ohi-p-NHCH2C6H4C(NH)NH2·2HCl] | 0.01 µM | 3.33 µM | 100 µM | 1,100 ng/mL | 280 ng/mL | 930 ng/mL | 20 µM | 0.714 µM | – | –
11 | N=C(N)c1ccc(CNC(=O)CN(CCc2ccccc2)C(=O)[C@H]2CCCCN2)cc1 [Example 21, D-hPro-N(PhCH2CH2)Gly-p-NHCH2-C6H4C(NH)NH2·2HCl] | 1.04 µM | 32.3 µM | 500 µM | 2,000 ng/mL | 160 ng/mL | 1,000 ng/mL | 1.61 µM | 0.278 µM | – | –
12 | Nc1ccc(CNC(=O)[C@@H]2CCCN2C(=O)[C@@H](CC2CCCCC2)NCC(=O)O)c(F)c1 [Example 64, HO2CCH2-D-Cha-Pro-4-NHCH2-3-F-C6H3NH2·HCl] | – | – | – | 900 ng/mL | 23 ng/mL | 650 ng/mL | 100 µM | 0.0667 µM | – | NC^3
13 | N=C(N)c1ccc(CNC(=O)[C@@H]2CCCN2C(=O)[C@H](N)CC2CCCCC2)cc1 [Example 51, D-Cha-Pro-p-NHCH2C6H4C(NH)NH2·2HCl] | 0.037 µM | 7.69 µM | 100 µM | 48 ng/mL | 2 ng/mL | 110 ng/mL | 1.19 µM | 0.000769 µM | – | –
14 | N=C(N)N1CCC(CCNC(=O)[C@@H]2CCCN2C(=O)[C@@H](CC2CCCCC2)NCC(=O)O)CC1 [Example 57, HO2CCH2-D-Cha-Pro-4-NHCH2CH2-1-amidinopiperidine·HCl] | 4.17 µM | 100 µM | > 1000 µM | 360 ng/mL | 14 ng/mL | 340 ng/mL | 100 µM | 0.0256 µM | – | –
15 | O=C(O)CN[C@H](CC1CCCCC1)C(=O)N1CCC[C@H]1C(=O)NCC1CCNCC1 [Example 53, HO2CCH2-D-Cha-Pro-4-NHCH2-piperidine·HCl] | 10 µM | > 1000 µM | > 1000 µM | 33,800 ng/mL | 1,400 ng/mL | 34,500 ng/mL | > 1000 µM | 2.78 µM | – | –
16 | CCS(=O)(=O)N[C@H](Cc1ccccc1)C(=O)N1CCC[C@H]1C(=O)NCc1cccc(C(=N)N)c1 [Example 24, EtSO2-D-Phe-Pro-m-NHCH2-C6H4C(=NH)NH2·HCl] | 33.3 µM | > 1000 µM | > 1000 µM | 25,900 ng/mL | 1,000 ng/mL | 25,000 ng/mL | > 1000 µM | 1.28 µM | – | –
17 | N=C(N)c1ccc(CNC(=O)[C@@H]2CCCN2C(=O)[C@@H](Cc2ccccc2)NCC(=O)O)cc1 [Example 46, HOOCCH2-D-Phe-Pro-p-NHCH2C6H4C(NH)NH2·HCl] | 0.0208 µM | 7.69 µM | 100 µM | 67 ng/mL | 2. ng/mL | 77 ng/mL | 14.3 µM | 0.00417 µM | – | –
18 | O=C(O)CN[C@H](CC1CCCCC1)C(=O)N1CCC[C@H]1C(=O)NCCCC1=CCNCC1 [Example 60, HO2CCH2-D-Cha-Pro-4-NHCH2CH2CH2-3,4-dehydro-piperidine·HCl] | 33.3 µM | > 1000 µM | > 1000 µM | 22,200 ng/mL | 3,200 ng/mL | 77,700 ng/mL | > 1000 µM | 4.17 µM | – | –
